The record followed here is patent US20260109715A1, “IMIDAZOPYRIDINE DERIVATIVES WITH BICYCLIC STRUCTURE” (PUBLIC UNIVERSITY CORPORATION YOKOHAMA CITY UNIVERSITY, priority 2022, published 2026).

Counter-ions that a name gives are not always drawn.

What is called IC50 is the midpoint of a concentration-inhibition curve. Broadly, the EC50 is the concentration giving half of the maximal effect.

In one assay the target is human SMG1 enzyme (Homo sapiens, UniProt Q96Q15). Description: Measurement of SMG1 kinase activity (ADP-Glo Kinase Assay). It is filed as biochemical. Particulars: purified human SMG1 enzyme 5 nM, Upf1 peptide substrate, ATP 4 μM; qAC50 synonymous with IC50; read-out: Test Example 1 ADP-Glo IC50. In outline: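 ADP-Glo luminescence readout of ADP made by 5 nM human SMG1 acting on 8 μg/mL Upf1 peptide with 4 μM ATP for 60 min at room temperature, after a 15 min enzyme–compound preincubation (1% DMSO; pH 7.5 HEPES, MnCl2). Activity scaled between DMSO and no-enzyme wells; IC50 by four-parameter logistic regression.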
Sequence of human SMG1 enzyme (Q96Q15 whole entry): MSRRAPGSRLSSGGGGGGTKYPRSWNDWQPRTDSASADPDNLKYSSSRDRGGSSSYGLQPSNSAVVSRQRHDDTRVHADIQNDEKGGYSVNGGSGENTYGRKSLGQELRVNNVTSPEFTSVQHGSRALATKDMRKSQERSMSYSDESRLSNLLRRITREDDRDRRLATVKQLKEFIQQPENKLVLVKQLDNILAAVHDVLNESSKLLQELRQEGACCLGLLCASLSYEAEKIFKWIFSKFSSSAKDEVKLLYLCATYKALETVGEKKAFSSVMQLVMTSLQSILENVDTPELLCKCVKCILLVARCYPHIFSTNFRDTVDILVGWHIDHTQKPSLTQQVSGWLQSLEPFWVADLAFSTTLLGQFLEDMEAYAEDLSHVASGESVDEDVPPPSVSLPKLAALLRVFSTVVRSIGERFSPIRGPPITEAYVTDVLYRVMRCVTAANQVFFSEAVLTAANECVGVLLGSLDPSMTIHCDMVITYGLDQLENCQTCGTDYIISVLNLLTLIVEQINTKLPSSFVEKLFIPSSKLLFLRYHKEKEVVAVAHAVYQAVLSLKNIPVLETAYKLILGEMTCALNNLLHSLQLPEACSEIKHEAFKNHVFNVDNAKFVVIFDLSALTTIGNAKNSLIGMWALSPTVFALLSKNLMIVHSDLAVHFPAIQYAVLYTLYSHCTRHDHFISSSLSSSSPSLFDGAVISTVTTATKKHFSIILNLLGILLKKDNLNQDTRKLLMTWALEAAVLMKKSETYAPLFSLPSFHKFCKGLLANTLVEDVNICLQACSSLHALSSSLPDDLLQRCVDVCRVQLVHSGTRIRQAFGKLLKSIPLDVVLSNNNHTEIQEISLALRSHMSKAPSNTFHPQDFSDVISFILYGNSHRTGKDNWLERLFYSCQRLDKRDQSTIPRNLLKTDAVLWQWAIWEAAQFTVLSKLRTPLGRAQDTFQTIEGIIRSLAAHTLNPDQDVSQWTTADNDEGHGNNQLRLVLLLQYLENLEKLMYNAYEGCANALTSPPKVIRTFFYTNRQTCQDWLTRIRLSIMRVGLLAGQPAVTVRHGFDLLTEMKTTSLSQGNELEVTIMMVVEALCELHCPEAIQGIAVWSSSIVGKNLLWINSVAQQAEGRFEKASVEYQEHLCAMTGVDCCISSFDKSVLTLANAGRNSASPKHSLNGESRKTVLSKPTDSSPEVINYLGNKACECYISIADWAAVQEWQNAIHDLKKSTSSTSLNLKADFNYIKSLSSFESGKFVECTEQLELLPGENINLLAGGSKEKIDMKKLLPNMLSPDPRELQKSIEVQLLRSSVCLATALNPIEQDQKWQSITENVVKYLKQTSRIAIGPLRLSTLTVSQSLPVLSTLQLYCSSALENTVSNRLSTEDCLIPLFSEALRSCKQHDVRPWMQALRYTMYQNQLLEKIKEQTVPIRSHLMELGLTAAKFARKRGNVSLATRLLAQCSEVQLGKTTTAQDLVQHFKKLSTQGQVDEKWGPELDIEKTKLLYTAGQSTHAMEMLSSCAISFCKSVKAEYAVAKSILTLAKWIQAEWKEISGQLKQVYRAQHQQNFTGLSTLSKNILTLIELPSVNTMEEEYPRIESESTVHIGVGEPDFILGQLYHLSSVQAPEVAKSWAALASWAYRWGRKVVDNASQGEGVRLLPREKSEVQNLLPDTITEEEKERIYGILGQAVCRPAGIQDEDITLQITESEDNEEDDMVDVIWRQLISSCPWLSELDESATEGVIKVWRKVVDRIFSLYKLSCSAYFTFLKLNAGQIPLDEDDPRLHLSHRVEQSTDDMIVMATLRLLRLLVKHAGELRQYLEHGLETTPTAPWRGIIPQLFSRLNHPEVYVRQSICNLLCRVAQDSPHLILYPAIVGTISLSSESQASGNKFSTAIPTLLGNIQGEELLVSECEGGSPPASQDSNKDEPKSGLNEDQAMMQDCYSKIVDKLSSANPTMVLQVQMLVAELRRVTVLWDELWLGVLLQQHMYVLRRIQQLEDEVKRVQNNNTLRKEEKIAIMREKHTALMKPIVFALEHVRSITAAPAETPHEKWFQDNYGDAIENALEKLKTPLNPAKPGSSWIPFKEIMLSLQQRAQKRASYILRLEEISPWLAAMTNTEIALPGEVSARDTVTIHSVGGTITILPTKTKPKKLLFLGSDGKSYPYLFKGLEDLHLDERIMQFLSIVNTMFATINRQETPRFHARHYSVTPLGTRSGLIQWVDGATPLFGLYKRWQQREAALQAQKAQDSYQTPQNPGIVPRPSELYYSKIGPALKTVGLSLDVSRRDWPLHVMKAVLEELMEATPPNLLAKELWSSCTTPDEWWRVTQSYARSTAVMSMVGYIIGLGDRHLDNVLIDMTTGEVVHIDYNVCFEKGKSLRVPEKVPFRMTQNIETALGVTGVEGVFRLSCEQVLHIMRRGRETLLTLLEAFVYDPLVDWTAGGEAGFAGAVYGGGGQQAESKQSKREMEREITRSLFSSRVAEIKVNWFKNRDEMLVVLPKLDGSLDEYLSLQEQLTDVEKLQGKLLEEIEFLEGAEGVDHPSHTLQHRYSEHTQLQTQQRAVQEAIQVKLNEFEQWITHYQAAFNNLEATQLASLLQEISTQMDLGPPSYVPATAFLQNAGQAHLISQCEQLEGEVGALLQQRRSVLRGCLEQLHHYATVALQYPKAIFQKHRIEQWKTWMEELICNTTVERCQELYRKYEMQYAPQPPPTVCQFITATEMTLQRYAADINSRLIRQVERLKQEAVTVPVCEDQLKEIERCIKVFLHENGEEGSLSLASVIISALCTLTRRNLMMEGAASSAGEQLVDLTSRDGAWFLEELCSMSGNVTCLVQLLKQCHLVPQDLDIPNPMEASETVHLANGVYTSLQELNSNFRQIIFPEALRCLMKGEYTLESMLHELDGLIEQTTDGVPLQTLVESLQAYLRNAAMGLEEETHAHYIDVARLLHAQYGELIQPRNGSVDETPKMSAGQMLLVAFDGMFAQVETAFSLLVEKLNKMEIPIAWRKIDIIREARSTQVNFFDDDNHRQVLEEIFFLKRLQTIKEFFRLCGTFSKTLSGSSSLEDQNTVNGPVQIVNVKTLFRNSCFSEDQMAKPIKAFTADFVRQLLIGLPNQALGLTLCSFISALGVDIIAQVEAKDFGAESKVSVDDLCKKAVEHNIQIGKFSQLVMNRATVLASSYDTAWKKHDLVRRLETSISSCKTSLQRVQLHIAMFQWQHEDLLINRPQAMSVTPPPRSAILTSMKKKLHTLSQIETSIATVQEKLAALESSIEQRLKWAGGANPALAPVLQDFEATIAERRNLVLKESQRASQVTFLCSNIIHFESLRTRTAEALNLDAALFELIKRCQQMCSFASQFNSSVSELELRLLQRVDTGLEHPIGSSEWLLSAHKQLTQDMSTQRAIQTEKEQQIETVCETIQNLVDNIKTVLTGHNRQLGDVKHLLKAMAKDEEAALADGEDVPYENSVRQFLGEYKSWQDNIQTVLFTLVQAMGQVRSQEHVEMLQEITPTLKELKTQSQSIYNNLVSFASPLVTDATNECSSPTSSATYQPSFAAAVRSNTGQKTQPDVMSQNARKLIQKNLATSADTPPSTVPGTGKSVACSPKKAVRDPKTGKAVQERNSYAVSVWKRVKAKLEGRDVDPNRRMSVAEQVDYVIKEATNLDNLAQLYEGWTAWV

For assay [1], the system named is Snhg1 transcript (NMD target gene) in EMT6 murine breast cancer cell line. Description: Measurement of NMD inhibitory activity in cells (increase in Snhg1 transcript, real-time PCR). On the set-up: species or system mouse. Particulars: Mus musculus, 6 hours treatment, concentration giving 1/2 of maximum Snhg1 fold change of positive control, read-out: Test Example 2 Cell-based Snhg1 EC50. The method in brief: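 EMT6 cells treated with serially diluted compound (2% DMSO final) for 6 h; Snhg1 transcript quantified by real-time PCR (ΔΔCT, Tbp endogenous control, untreated wells set to 1). EC50 taken as concentration giving half the maximum fold change of a known NMD inhibitor positive control.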

Assay [2] relates to Snhg1 transcript in tumor tissues of mice subcutaneously implanted with EMT6 murine breast cancer cell line. The assay can be described thus: Evaluation of NMD inhibitory activity in vivo (Snhg1 transcript in EMT6 tumor tissue after oral administration). Particulars: 6 hours after administration, BALB/c mice. The protocol:
The NMD inhibitory activity of a compound of the present invention or a pharmaceutically acceptable salt thereof in vivo can be measured, for example, by the method described below. Using mice subcutaneously implanted with EMT6 murine breast cancer cell line, tumor tissues 6 hours after oral administration of a test substance are excised, and the increase in Snhg1 transcript is quantified as an indicator of NMD inhibition in the tumor, in the same manner as in the in vitro method.
In this test, NMD inhibitory activity in tumor tissues was evaluated when a test substance was orally administered to mice subcutaneously implanted with EMT6 murine breast cancer cell line. As an indicator of NMD inhibitory activity, the increase in the transcript of Snhg1, an NMD target gene, was quantified. First, BALB/c mice were subcutaneously implanted with EMT6 cells (ATCC), and engraftment was confirmed 7 days later. Six hours after administration of the test substance, mice were euthanized, and the collected tumor tissues were cryopreserved. RNA was extracted from the tumor tissues using the illustra RNAspin Mini RNA Isolation kit (GE Healthcare Life Sciences). After synthesizing cDNA using the High-Capacity cDNA Reverse Transcription Kits (Applied Biosystems, 4368813), the cDNA was mixed with PrimeTime Gene Expression Master Mix (Integrated DNA Technologies) and various probes, and gene expression was quantified by QuantStudio 6 Flex (Thermo Fisher Scientific Inc.). For the probe for the Snhg1 gene, which is an NMD target, Mm.PT.58.44039547 (FAM) (Integrated DNA Technologies) was used, and for the probe for the Gapdh gene, which is an endogenous control, Mm99999915_g2 (VIC-PL) (Applied Biosystems) was used. The relative quantification of Snhg1 transcripts in each sample was calculated by the ΔΔCT method using Gapdh as an endogenous control, and the expression level of Snhg1 in each test substance administration group was calculated by setting the expression level of the Vehicle group (0.5% methylcellulose administration group) to 1.

For the compound `CCc1nc(Cl)cc2[nH]c(-c3cc4c(-c5c(O)cccc5F)nccc4[nH]c3=O)nc12.CS(=O)(=O)O` [Example 137, 3-(6-chloro-4-ethyl-1H-imidazo[4,5-c]pyridin-2-yl)-5-(2-fluoro-6-hydroxyphenyl)-1,6-naphthyridin-2(1H)-one methanesulfonate], on human SMG1 enzyme, the IC50 stood at 1.2 nM. Moreover, the EC50 in assay [1] amounted to 10 nM. The Snhg1 fold change in assay [2] (25 mg/kg oral) is on record as 5.1.
In the case of `Cc1nn(C(F)F)c(C)c1-c1nccc2[nH]c(=O)c(-c3nc4c(C)nc(Cl)cc4[nH]3)cc12` [Example 84, 3-(6-chloro-4-methyl-1H-imidazo[4,5-c]pyridin-2-yl)-5-[1-(difluoromethyl)-3,5-dimethyl-1H-pyrazol-4-yl]-1,6-naphthyridin-2(1H)-one], the IC50 at human SMG1 enzyme was found to be 1 nM. The EC50 in assay [1] is 42 nM. The compound also came in with a Snhg1 fold change in assay [2] (10 mg/kg oral) of 4.6.
In the case of `COc1ncccc1-c1nccc2[nH]c(=O)c(-c3nc4c(NCC(F)(F)F)nc(Cl)cc4[nH]3)cc12.CS(=O)(=O)O` [Example 142, 3-{6-chloro-4-[(2,2,2-trifluoroethyl)amino]-1H-imidazo[4,5-c]pyridin-2-yl}-5-(2-methoxypyridin-3-yl)-1,6-naphthyridin-2(1H)-one methanesulfonate], the half-maximal inhibitory concentration (IC50) on human SMG1 enzyme is 0.63 nM. Also, in assay [1], the EC50 is 3.7 nM. Also, the Snhg1 fold change in assay [2] (10 mg/kg oral) is listed as 11.
`CS(=O)(=O)O.Cc1c(-c2nccc3[nH]c(=O)c(-c4nc5c(C6CCOCC6)nc(Cl)cc5[nH]4)cc23)c(C2CC2)nn1C(F)F` [Example 153, 3-[6-chloro-4-(tetrahydro-2H-pyran-4-yl)-1H-imidazo[4,5-c]pyridin-2-yl]-5-[3-cyclopropyl-1-(difluoromethyl)-5-methyl-1H-pyrazol-4-yl]-1,6-naphthyridin-2(1H)-one methanesulfonate]: the 50% inhibitory concentration (IC50) on human SMG1 enzyme amounted to 0.96 nM. In addition, the EC50 in assay [1] was 5.1 nM. In assay [2] (10 mg/kg oral), the Snhg1 fold change was 6.9.
The matching figures for `C[C@@H]1COCCN1c1nc(Cl)cc2[nH]c(-c3cc4cnccc4[nH]c3=O)nc12.Cc1ccc(S(=O)(=O)O)cc1` [Example 117, 3-{6-chloro-4-[(3R)-3-methylmorpholin-4-yl]-1H-imidazo[4,5-c]pyridin-2-yl}-1,6-naphthyridin-2(1H)-one p-toluenesulfonate]: 5.1 nM, 80 nM and 5.1.
As to `[2H]C([2H])([2H])Oc1ccccc1-c1nccc2[nH]c(=O)c(-c3nc4c(CC)nc(Cl)cc4[nH]3)cc12` [Example 37, 3-(6-chloro-4-ethyl-1H-imidazo[4,5-c]pyridin-2-yl)-5-{2-[(^2H3)methyloxy]phenyl}-1,6-naphthyridin-2(1H)-one], the IC50 at human SMG1 enzyme worked out at 0.36 nM. The EC50 in assay [1] stood at 9.4 nM. The same compound showed a Snhg1 fold change in assay [2] (10 mg/kg oral) of 8.4.
For the compound `C[C@@H](Nc1nc(Cl)cc2[nH]c(-c3cc4c(N5CCN(C)CC5)nccc4[nH]c3=O)nc12)C(F)(F)F` [Example 7, 3-(6-chloro-4-{[(2R)-1,1,1-trifluoropropan-2-yl]amino}-1H-imidazo[4,5-c]pyridin-2-yl)-5-(4-methylpiperazin-1-yl)-1,6-naphthyridin-2(1H)-one], the IC50 on human SMG1 enzyme is 6 nM. For the same compound, in assay [1], the concentration for a half-maximal effect (EC50) stood at 95 nM.
Turning to `CCc1nc(Cl)cc2[nH]c(-c3cc4c(-c5ccn(C(F)F)n5)nccc4[nH]c3=O)nc12` [Example 150, 3-(6-chloro-4-ethyl-1H-imidazo[4,5-c]pyridin-2-yl)-5-[1-(difluoromethyl)-1H-pyrazol-3-yl]-1,6-naphthyridin-2(1H)-one methanesulfonate], at human SMG1 enzyme, the IC50 worked out at 3.6 nM. Further, in assay [1], the 50% effective concentration (EC50) was found to be 66 nM.
As for `CCc1nc(Cl)cc2[nH]c(-c3cc4c(-c5cc(C)n(C)n5)nccc4[nH]c3=O)nc12` [Example 151, 3-(6-chloro-4-ethyl-1H-imidazo[4,5-c]pyridin-2-yl)-5-(1,5-dimethyl-1H-pyrazol-3-yl)-1,6-naphthyridin-2(1H)-one methanesulfonate], the IC50 on human SMG1 enzyme stood at 1.5 nM. For the same compound, in assay [1], the half-maximal effective concentration (EC50) came out at 16 nM.
On the same counts, the results for `[2H]C([2H])([2H])Oc1ccccc1-c1nccc2[nH]c(=O)c(-c3nc4c(N5CCNC(=O)C5)nc(Cl)cc4[nH]3)cc12` [Example 43, 3-[6-chloro-4-(3-oxopiperazin-1-yl)-1H-imidazo[4,5-c]pyridin-2-yl]-5-{2-[(^2H3)methyloxy]phenyl}-1,6-naphthyridin-2(1H)-one] are 0.97 nM and 24 nM.
As for `COc1cc(C(C)(F)F)ncc1-c1nccc2[nH]c(=O)c(-c3nc4c(C)nc(Cl)cc4[nH]3)cc12` [Example 65, 3-(6-chloro-4-methyl-1H-imidazo[4,5-c]pyridin-2-yl)-5-[6-(1,1-difluoroethyl)-4-methoxypyridin-3-yl]-1,6-naphthyridin-2(1H)-one], the IC50 at human SMG1 enzyme turned out to be 0.69 nM. In addition, the concentration for a half-maximal effect (EC50) in assay [1] stood at 15 nM.
As to `O=C1CS(=O)(=O)c2cccc(c2)-c2nccc3[nH]c(=O)c(cc23)-c2nc3c(nc(Cl)cc3[nH]2)N2CCCN1CC2` [Example 112, 7-chloro-17-thia-3,8,10,14,24,28,35-heptaazaheptacyclo[21.6.2.2^10,14.1^2,5.1^18,22.0^4,9.0^27,31]pentatriacont-1(30)2,4,6,8,18(32),19,21,23(31),24,26-undecaen-15,29-dione17,17-dioxide], the IC50 at human SMG1 enzyme was 1.3 nM. The half-maximal effective concentration (EC50) in assay [1] came out at 510 nM.
For the compound `CCc1nc(Cl)cc2[nH]c(-c3cc4c(-c5cnc(C)cc5OC)nccc4[nH]c3=O)nc12` [Example 60, 3-(6-chloro-4-ethyl-1H-imidazo[4,5-c]pyridin-2-yl)-5-(4-methoxy-6-methylpyridin-3-yl)-1,6-naphthyridin-2(1H)-one], the IC50 on human SMG1 enzyme is 0.7 nM. Also, the EC50 in assay [1] came out at 5.7 nM.
In the case of `CCCc1nc(Cl)cc2[nH]c(-c3cc4c(C)nccc4[nH]c3=O)nc12` [Example 20, 3-(6-chloro-4-propyl-1H-imidazo[4,5-c]pyridin-2-yl)-5-methyl-1,6-naphthyridin-2(1H)-one], the IC50 on human SMG1 enzyme came to 2 nM. In assay [1], the EC50 turned out to be 13 nM.
Consider `COc1cc(C(F)F)ncc1-c1nccc2[nH]c(=O)c(-c3nc4c(C)nc(Cl)cc4[nH]3)cc12` [Example 63, 3-(6-chloro-4-methyl-1H-imidazo[4,5-c]pyridin-2-yl)-5-[6-(difluoromethyl)-4-methoxypyridin-3-yl]-1,6-naphthyridin-2(1H)-one], for which the concentration for half-maximal inhibition (IC50) at human SMG1 enzyme came to 0.68 nM. Besides, in assay [1], the EC50 was determined as 14 nM.
Regarding `NC1CN(c2nc(Cl)cc3[nH]c(-c4cc5cnccc5[nH]c4=O)nc23)CC(F)(F)C1` (centres unmarked) [Example 9, 3-[4-(5-amino-3,3-difluoropiperidin-1-yl)-6-chloro-1H-imidazo[4,5-c]pyridin-2-yl]-1,6-naphthyridin-2(1H)-one trifluoroacetate], the IC50 on human SMG1 enzyme amounted to 4 nM. For the same compound, the EC50 in assay [1] amounted to 122 nM.
Take `O=C(C1CC1)N1CCC=C(c2nccc3[nH]c(=O)c(-c4nc5cnc(Cl)cc5[nH]4)cc23)C1` [Example 105, 3-(6-chloro-1H-imidazo[4,5-c]pyridin-2-yl)-5-[1-(cyclopropylcarbonyl)-1,2,5,6-tetrahydropyridin-3-yl]-1,6-naphthyridin-2(1H)-one]: the concentration for half-maximal inhibition (IC50) at human SMG1 enzyme came to 1.5 nM. Further, in assay [1], the concentration giving a half-maximal response (EC50) was 59 nM.
For `O=c1[nH]c2ccnc(-c3cccc(CN4C5CCC4COC5)c3)c2cc1-c1nc2cnc(Cl)cc2[nH]1` [Example 47, 3-(6-chloro-1H-imidazo[4,5-c]pyridin-2-yl)-5-[3-(3-oxa-8-azabicyclo[3.2.1]octan-8-ylmethyl)phenyl]-1,6-naphthyridin-2(1H)-one], at human SMG1 enzyme, the concentration for half-maximal inhibition (IC50) is 2.1 nM. Also, the EC50 in assay [1] came to 117 nM.
On to `Cc1c2cccc1-c1nccc3[nH]c(=O)c(cc13)-c1nc3c(nc(Cl)cc3[nH]1)N1CCCN(CC1)C(=O)CO2` [Example 110, 7-chloro-32-methyl-17-oxa-3,8,10,14,24,28,35-heptaazaheptacyclo[21.6.2.2^10,14.1^2,5.1^18,22.0^4,9.0^27,31]pentatriacont-1(30),2,4,6,8,18(32),19,21,23(31),24,26-undecaen-15,29-dione], for which the IC50 on human SMG1 enzyme worked out at 1.3 nM. The EC50 in assay [1] stood at 1.1 nM.
